pIC50: −log10 of the molar value.
Target: Potassium voltage-gated channel subfamily A member 3 (Homo sapiens, UniProt P22001)
Assay: Inhibitory activity against voltage-gated potassium channel subunit Kv1.3
Format: functional

Chain of Potassium voltage-gated channel subfamily A member 3 (P22001 whole entry): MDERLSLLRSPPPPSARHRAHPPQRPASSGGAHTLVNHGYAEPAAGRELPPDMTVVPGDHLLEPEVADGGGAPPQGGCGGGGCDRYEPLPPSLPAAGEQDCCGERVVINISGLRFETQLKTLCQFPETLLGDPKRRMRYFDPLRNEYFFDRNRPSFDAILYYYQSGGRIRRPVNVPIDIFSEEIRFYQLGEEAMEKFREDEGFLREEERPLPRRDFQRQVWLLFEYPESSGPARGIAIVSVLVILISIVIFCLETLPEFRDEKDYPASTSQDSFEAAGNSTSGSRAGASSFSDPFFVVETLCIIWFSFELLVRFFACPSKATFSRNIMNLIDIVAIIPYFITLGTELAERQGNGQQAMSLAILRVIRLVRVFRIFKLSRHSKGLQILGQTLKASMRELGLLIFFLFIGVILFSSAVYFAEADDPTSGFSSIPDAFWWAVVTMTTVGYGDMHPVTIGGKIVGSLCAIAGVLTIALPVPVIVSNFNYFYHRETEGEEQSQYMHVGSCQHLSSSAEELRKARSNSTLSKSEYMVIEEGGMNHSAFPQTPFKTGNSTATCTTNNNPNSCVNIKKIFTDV

pIC50: 7.46
SMILES: COC(=O)C12O[C@@H]1C(=O)CC1(O)C3CC[C@]4(C)C([C@H](OC(C)=O)[C@H](OC(C)=O)[C@@]5([C@@H](C)OC(C)=O)COCC=CC45)[C@@]3(C)[C@H](OC(C)=O)[C@H](OC(C)=O)[C@]12C (stereo partly specified)

Source: ChEMBL document CHEMBL1144256, “Potent Kv1.3 inhibitors from correolide-modification of the C18 position” (Bioorg Med Chem Lett, 2005)
